Here are results for 33 molecules from ChEMBL document CHEMBL1268951, “Polyamide amino acids trimers as TAR RNA ligands and anti-HIV agents” (Bioorg Med Chem, 2010).

This test in a line: Inhibition of HIV1 Tat/TAR interaction at 1 to 400 uM by FRET based competition assay.

Each structure is given as a SMILES string. Active and inactive are the calls of the source. The calls are words filed in the database; no cut-off is given here. Where a SMILES comes first, the peptide text is derived from it.

`N=C(N)NCCC[C@H](N)C(=O)N[C@@H](Cc1ccccc1)C(=O)N[C@@H](CCCCN)C(=O)O` (H-Arg-Phe-Lys-OH): the inhibition result is “Active”.
For `C[C@H](N)C(=O)NCCN(CC(=O)N[C@@H](C)C(=O)O)C(=O)[C@H](C)NC(=O)OCc1ccccc1`, the inhibition entry is “Active”.
Consider `N=C(N)NCCC[C@H](NC(=O)CN(CCNC(=O)[C@@H](N)CCCCN)C(=O)[C@H](CCCN(C(=N)NC(=O)OCc1ccccc1)C(=O)OCc1ccccc1)NC(=O)OCc1ccccc1)C(=O)O`, for which the inhibition entry was “Active”.
To `NCCCC[C@H](N)C(=O)NCCN(CC(=O)N[C@@H](Cc1ccccc1)C(=O)O)C(=O)[C@H](Cc1ccccc1)NC(=O)OCc1ccccc1` belongs “Active”.
To `C[C@H](NC(=O)CN(CCNC(=O)[C@@H](N)CCCNC(=N)N)C(=O)[C@H](C)NC(=O)OCc1ccccc1)C(=O)O` belongs “Active”; to `N=C(N)NCCC[C@H](NC(=O)[C@H](Cc1ccccc1)NC(=O)[C@@H](N)CCCNC(=N)N)C(=O)O` (H-Arg-Phe-Arg-OH), “Active”; to `C[C@H](N)C(=O)NCCN(CC(=O)N[C@@H](CCCCN)C(=O)O)C(=O)[C@H](CCCCNC(=O)OCc1ccccc1)NC(=O)OCc1ccccc1`, “Active”.
On to `C[C@H](NC(=O)[C@@H](N)CCCNC(=N)N)C(=O)N[C@@H](CCCCN)C(=O)O` (H-Arg-Ala-Lys-OH), for which the inhibition result is “Active”.
As to `N=C(N)NCCC[C@H](NC(=O)[C@H](CCCNC(=N)N)NC(=O)[C@@H](N)CCCNC(=N)N)C(=O)O` (H-Arg-Arg-Arg-OH), the inhibition entry was “Active”.
The result for `N[C@@H](Cc1ccccc1)C(=O)N[C@@H](Cc1ccccc1)C(=O)N[C@@H](Cc1ccccc1)C(=O)O` (H-Phe-Phe-Phe-OH) reads “Active”.
To `C[C@H](N)C(=O)NCCN(CC(=O)N[C@@H](CCCNC(=N)N)C(=O)O)C(=O)[C@H](CCCN(C(=N)NC(=O)OCc1ccccc1)C(=O)OCc1ccccc1)NC(=O)OCc1ccccc1` belongs “Active”; to `NCCCC[C@H](NC(=O)[C@@H](N)Cc1ccccc1)C(=O)N[C@@H](Cc1ccccc1)C(=O)O` (H-Phe-Lys-Phe-OH), “Active”; to `N[C@@H](Cc1ccccc1)C(=O)NCCN(CC(=O)N[C@@H](Cc1ccccc1)C(=O)O)C(=O)[C@H](Cc1ccccc1)NC(=O)OCc1ccccc1`, “Active”.
In the case of `N=C(N)NCCC[C@H](NC(=O)[C@@H](N)Cc1ccccc1)C(=O)N[C@@H](Cc1ccccc1)C(=O)O` (H-Phe-Arg-Phe-OH), the inhibition entry was “Active”.
To `NCCCC[C@H](NC(=O)CN(CCNC(=O)[C@@H](N)CCCCN)C(=O)[C@H](CCCCNC(=O)OCc1ccccc1)NC(=O)OCc1ccccc1)C(=O)O` belongs “Active”; to `C[C@H](NC(=O)CN(CCNC(=O)[C@@H](N)Cc1ccccc1)C(=O)[C@H](C)NC(=O)OCc1ccccc1)C(=O)O`, “Active”.
To `N=C(N)NCCC[C@H](N)C(=O)NCCN(CC(=O)N[C@@H](Cc1ccccc1)C(=O)O)C(=O)[C@H](Cc1ccccc1)NC(=O)OCc1ccccc1` belongs “Active”.
To `NCCCC[C@H](NC(=O)CN(CCNC(=O)[C@@H](N)Cc1ccccc1)C(=O)[C@H](CCCCNC(=O)OCc1ccccc1)NC(=O)OCc1ccccc1)C(=O)O` belongs “Active”.
As to `C[C@H](NC(=O)[C@@H](N)Cc1ccccc1)C(=O)N[C@@H](Cc1ccccc1)C(=O)O` (H-Phe-Ala-Phe-OH), the inhibition result was “Active”.
The result for `N=C(N)NCCC[C@H](NC(=O)CN(CCNC(=O)[C@@H](N)Cc1ccccc1)C(=O)[C@H](CCCN(C(=N)NC(=O)OCc1ccccc1)C(=O)OCc1ccccc1)NC(=O)OCc1ccccc1)C(=O)O` reads “Active”; that for `C[C@H](N)C(=O)NCCN(CC(=O)N[C@@H](Cc1ccccc1)C(=O)O)C(=O)[C@H](Cc1ccccc1)NC(=O)OCc1ccccc1`, “Active”; that for `N=C(N)NCCC[C@H](N)C(=O)NCCN(CC(=O)N[C@@H](CCCCN)C(=O)O)C(=O)[C@H](CCCCNC(=O)OCc1ccccc1)NC(=O)OCc1ccccc1`, “Active”.
To `N=C(N)NCCC[C@H](NC(=O)CN(CCNC(=O)[C@@H](N)CCCNC(=N)N)C(=O)[C@H](CCCN(C(=N)NC(=O)OCc1ccccc1)C(=O)OCc1ccccc1)NC(=O)OCc1ccccc1)C(=O)O` belongs “Active”; to `C[C@H](NC(=O)CN(CCNC(=O)[C@@H](N)CCCCN)C(=O)[C@H](C)NC(=O)OCc1ccccc1)C(=O)O`, “Active”; to `N=C(N)NCCC[C@H](N)C(=O)N[C@@H](CCCCN)C(=O)N[C@@H](CCCCN)C(=O)O` (H-Arg-Lys-Lys-OH), “Active”.
For the molecule `N=C(N)NCCC[C@H](NC(=O)[C@@H](N)CCCNC(=N)N)C(=O)N[C@@H](CCCCN)C(=O)O` (H-Arg-Arg-Lys-OH), the inhibition entry is “Active”.
To `C[C@H](NC(=O)[C@H](C)NC(=O)[C@@H](N)CCCCN)C(=O)O` (H-Lys-Ala-Ala-OH) belongs “Active”; to `NCCCC[C@H](NC(=O)[C@H](Cc1ccccc1)NC(=O)[C@@H](N)Cc1ccccc1)C(=O)O` (H-Phe-Phe-Lys-OH), “Active”.
The result for `NCCCC[C@H](NC(=O)[C@H](CCCCN)NC(=O)[C@@H](N)Cc1ccccc1)C(=O)O` (H-Phe-Lys-Lys-OH) reads “Active”; that for `C[C@H](NC(=O)[C@H](CCCCN)NC(=O)[C@@H](N)CCCCN)C(=O)O` (H-Lys-Lys-Ala-OH), “Active”.
`C[C@H](NC(=O)[C@H](Cc1ccccc1)NC(=O)[C@@H](N)CCCCN)C(=O)O` (H-Lys-Phe-Ala-OH): the inhibition entry is “Active”.
The result for `N=C(N)NCCC[C@H](NC(=O)[C@H](CCCCN)NC(=O)[C@@H](N)CCCNC(=N)N)C(=O)O` (H-Arg-Lys-Arg-OH) reads “Active”; that for `N=C(N)NCCC[C@H](NC(=O)[C@@H](N)Cc1ccccc1)C(=O)N[C@@H](CCCCN)C(=O)O` (H-Phe-Arg-Lys-OH), “Active”.
